Experimental findings from patent publication US20250288561A1, “NEZULCITINIB FOR DELIVERY BY NEBULIZED ORAL INHALATION” (THERAVANCE BIOPHARMA R&D IP, LLC, priority 2022, published 2025) are described below.

Data set [1] can be described thus: Earlier phase 1 clinical trial, nebulized inhalation: plasma pharmacokinetics. The data set is classed as in vivo, human. Conditions: for maximal plasma exposure, fold lower than the protein-adjusted JAK IC50: inhaled. As for the experimental part:
Compound 1 was evaluated in a phase 1 clinical trial and dosed in humans through nebulized inhalation at 1 mg, 3 mg, and 10 mg for up to 7 days. […] The pharmacokinetics of inhaled compound 1 are consistent with low plasma exposures after inhaled administration. […] Additionally, absolute NK cell counts were evaluated after multiple-dosing to assess the potential for systemic pharmacologic effects associated with JAK inhibition by compound 1. […] The lack of reduction in NK cell counts is also consistent with the lack of systemic JAK inhibition. […] Other systemically mediated hematological changes associated with JAK inhibition, including neutrophil and hemoglobin reductions as well as lipid changes, were not observed with inhaled administration of compound 1.
The selected dose of 3 mg in the present study was consistent with the dose in a recently completed Phase 2 study. In addition, the 3 mg dose ensured adequate characterization of the nezulcitinib PK profile. Dose levels up to 9 mg of nezulcitinib were also evaluated (Administration D2). This dose level was within the range of doses tested previously (up to 10 mg of nezulcitinib) in healthy participants and those with COVID-19 in previous clinical studies.

Data set [2] relates to subjects infected with COVID. As to the kind of experiment: Phase 2 clinical study in subjects infected with COVID: efficacy. The format is in vivo, human. Conditions: for time to recovery, median: vs placebo 11; for 28-day all-cause mortality, HR / time to recovery, HR: vs placebo. The protocol: Compound 1 has been studied in a phase 2 clinical study in subjects infected with COVID.
Importantly, in a post-hoc analysis of subjects with baseline CRP (n=201), in subjects with CRP <150 mg/L (n=171), there was an improvement in those treated with compound 1 when compared to placebo in: • 28-day all-cause mortality (total number of deaths: 1 vs 9, HR: 0.097, p=0.009). • time to recovery (median: 10 vs. 11 days, HR: 1.48, p=0.02).
In subjects with CRP >150 mg/L (n=30), there was no difference in time to recovery or 28-day all-cause mortality between those treated with compound 1 or placebo.

Molecules are shown by their SMILES.

Regarding `CCc1cc(O)ccc1-c1ccc2c(-c3nc4c([nH]3)CN(C(C)C)[C@H](C(=O)N3CC(N(C)C)C3)C4)n[nH]c2c1` [Compound 1, (S)-(3-(dimethylamino)azetidin-1-yl)(2-(6-(2-ethyl-4-hydroxyphenyl)-1H-indazol-3-yl)-5-isopropyl-4,5,6,7-tetrahydro-3H-imidazo[4,5-c]pyridin-6-yl)methanone], the figures for the “maximal plasma exposure, fold lower than the protein-adjusted JAK IC50” value in data set [1] (dose level 3 mg) and in data set [1] (dose level 10 mg) were “about 20 fold” and “about 7 fold”, respectively. In addition, the “plasma Cmax relative to the binding-corrected JAK IC50” value in data set [1] (nebulized inhalation at 1 mg, 3 mg and 10 mg for up to 7 days) is “well under the binding-corrected JAK IC50”. The “dose proportionality of systemic exposure (AUC0-24) and Cmax” value in data set [1] (single and multiple doses, 1 to 10 mg) is “increased in a dose proportional manner”. In addition, the “change from baseline at Day 7 in SaO2/FiO2 ratio, 8-point Clinical Status scale categories, proportion alive and respiratory failure-free at Day 28, vs placebo” value in data set [2] (ITT) is “no difference”. For the same compound, the “RFDs (respiratory failure-free days) from randomization through Day 28, median” value in data set [2] (ITT, vs placebo 21, p=0.61) is given as 21 days. Moreover, the “time to recovery, median” value in data set [2] (all subjects) is recorded as 10 days; in data set [2] (post-hoc, baseline CRP <150 mg/L), 10 days. Moreover, the “28-day all-cause mortality, total number of deaths” value is 6 in data set [2] (all subjects, vs placebo 13) and 1 in data set [2] (post-hoc, subjects with baseline CRP <150 mg/L (n=171), vs placebo 9). For the same compound, the “28-day all-cause mortality, HR” value came out at 0.42 in data set [2] (all subjects, p=0.08) and 0.097 in data set [2] (post-hoc, baseline CRP <150 mg/L, p=0.009). Further, the “time to recovery, HR” value in data set [2] (all subjects, p=0.12) amounted to 1.27; in data set [2] (post-hoc, baseline CRP <150 mg/L, p=0.02), 1.48. Besides, in data set [2] (subjects with CRP >150 mg/L (n=30)), the “time to recovery or 28-day all-cause mortality vs placebo” value is “no difference”.
